The structures appear in SMILES notation.

Consider 21 compounds from patent US5688805A, “Tricyclic derivatives, compositions and methods of use” (Schering Corporation, priority 1995, dated 1997).

For one assay, the system named is TNF-α. Nature of the assay: In Vitro Study: Inhibition of LPS-Induced TNF-α Production From the Murine Cell Line WEHI-265. Conditions: for inhibition at 10 µM: Mus musculus, WEHI-265 cells, LPS, 20-24 hours. The format is cell-based. As for the experimental part: This test procedure is a standard test used to determine anti-TNF-α activity and to evaluate the usefulness of said compounds for counteracting the biological effects of TNF-α.
In Vitro Study: Inhibition of LPS-Induced TNF-α Production From the Murine Cell Line WEHI-265
1) Cells (obtained from cell cultures containing ≤10^6 cells/ml) are suspended at 0.2×10^6 cells/ml in complete medium (RPMI1640, with 10% FCS, 10^-5 M 2-ME, 2 mM glutamine and 10 mM HEPES buffer) and plated in CoStar 24 well plates (1.0 ml/well).
2) Compounds are dissolved in the appropriate vehicle at 400 times the concentration to be tested, and 5 μl of compound is added to the wells.
3) LPS (from E. coli 0111:B4) is diluted to 6 μg/ml and 1.0 ml is added to wells.
4) Plates are incubated 20-24 hours in 37° C. CO2 incubator.
5) Supernatant fluids are collected and analyzed for TNF content as described in J. lmmunol., 142:3884.

In assay [1] the test system is LPS/Galactosamine-Induced Lethality. Nature of the assay: In Vivo Study: Inhibition of LPS/Galactosamine-Induced Lethality. More on the design: species or system Mice (C57BI/6J males). Conditions: 25 mg/kg orally or i.p. one hour before LPS (100 ng) and d-galactosamine (8 mg) i.p.; survival at 24 hours. As to the method:
This test procedure is a standard test used to determine activity against septic shock.
3. In Vivo Study: Inhibition of LPS/Galactosamine-Induced Lethality
Mice (C57BI/6J males, 6-8 weeks of age) are dosed with the indicated compound (dissolved in CMC suspension vehicle; compounds are given orally or i.p. one hour before challenge with LPS and d-galactosamine).
Mice are challenged i.p. with a mixture of LPS (from E. coli 0111:B4; 100 ng) and d-galactosamine (8 mg).
Survival is determined 24 hours after challenge. See procedure

The next assay relates to TNF. Nature of the assay: In Vivo Study: Inhibition of LPS-Induced Serum TNF. Details: species or system Mice (C57BI/6J males). Conditions: Mus musculus, 1.5 h; 25 mg/kg orally or i.p. one hour before LPS (50 μg i.p.); bled 90 min after LPS; serum TNF by ELISA. As to the method:
In addition to the in vitro test described above, the following in vivo test was also performed on several of the compounds of the present invention.
2. In Vivo Study: Inhibition of LPS-Induced Serum TNF
1) Mice (C57BI/6J males, 6-8 weeks of age) are dosed with the indicated compound (dissolved in CMC suspension vehicle; compounds are given orally or i.p. one hour before LPS challenge).
3) Mice are bled 90 min after LPS challenge.
4) Sera are analyzed for TNF content by ELISA as described in J. Immunol.
(In general: An ELISA detects its analyte on a solid surface through an enzyme-linked reagent.)

In turn, `C=CCC1(C2=CCNCC2)c2ccccc2CCc2ccccc21` [Compound IE, 4-[10,11-dihydro-5-(2-propenyl)-5H-dibenzo[a,d]cyclohepten-5-yl]-1,2,5,6-tetrahydro(1H)-pyridine] came in with an inhibition at 10 µM in the assay on TNF-α of 61%. Also, in assay [1], the “# DEAD/TOTAL AT 25 MG/KG” value is recorded as 7/8.

Turning to `CC1(C2=CC[N+](C)(C)CC2)c2ccccc2CCc2ccccc21` [IT], the inhibition in vivo at 25 mg/kg with TNF stood at 3%. In addition, in the assay with TNF-α, the inhibition at 10 µM worked out at 9%.

`C[N+]1(C)CC=C(C2c3ccccc3CCc3ccccc32)CC1` [Compound IY, 4-(10,11-dihydro-5H-dibenzo[a,d]cyclohepten-5-yl)-1,1-dimethyl-1,2,5,6-tetrahydropyridinium iodide]: 10 µM produced 12% inhibition in the assay with TNF-α.

`C=CCC1(C2=CCN(C)CC2)c2ccccc2CCc2ccccc21` [Compound IB, 4-[10,11-dihydro-5-(2-propenyl)-5H-dibenzo[a,d]cyclohepten-5-yl]-1-methyl-1,2,5,6-tetrahydropyridine] registered an inhibition in vivo at 25 mg/kg in the assay on TNF of 80%. Also, in the assay on TNF-α, 10 µM produced 70% inhibition. For the same compound, in assay [1], the “# DEAD/TOTAL AT 25 MG/KG” value is recorded as 0/8.

With `C=CCC1(C2=CCN(C(C)C)CC2)c2ccccc2CCc2ccccc21` [Compound IP], in the assay with TNF, the inhibition in vivo at 25 mg/kg is 28%. The compound further gave an inhibition at 10 µM with TNF-α of 62%. Also, the “# DEAD/TOTAL AT 25 MG/KG” value in assay [1] is 6/10.

For the compound `CN1CC=C(C2(Cc3ccccc3)c3ccccc3CCc3ccccc32)CC1` [IK], in the assay on TNF, the inhibition in vivo at 25 mg/kg was found to be 45%. In the assay with TNF-α, this compound had an inhibition at 10 µM of 61%. Besides, the “# DEAD/TOTAL AT 25 MG/KG” value in assay [1] is on record as 5/9.

With `CN1CCC(C2c3ccccc3CCc3ccccc32)CC1` [Compound K, reference compound], the inhibition in vivo at 25 mg/kg in the assay on TNF stood at 82%. In the assay on TNF-α, this compound registered an inhibition at 10 µM of 17%. Also, the “anti-TNF-α activity (in words)” value with TNF-α (general statement) is “has anti-TNF-α activity”. Also, the “# DEAD/TOTAL AT 25 MG/KG” value in assay [1] was 0/10.

In the assay with TNF, `CC(C)=CCC1(C2=CCN(C)CC2)c2ccccc2CCc2ccccc21` [IQ] displayed an inhibition in vivo at 25 mg/kg of 28%. In the assay on TNF-α, this compound registered an inhibition at 10 µM of 62%. Moreover, in assay [1], the “# DEAD/TOTAL AT 25 MG/KG” value is given as 4/10.

In turn, `C=CCC1(C2=CCN(C)CC2)c2ccccc2CCc2cccnc21` (stereo not drawn) [IX] gave an inhibition in vivo at 25 mg/kg in the assay on TNF of 56%. At 10 µM the inhibition in the assay on TNF-α was 38%. Besides, the “# DEAD/TOTAL AT 25 MG/KG” value in assay [1] was 9/9.

As to `C=CCC1(C2=CCN(C)CC2)c2ccccc2C=Cc2ccccc21` [IH], the inhibition in vivo at 25 mg/kg in the assay on TNF amounted to 8%. The compound also displayed an inhibition at 10 µM in the assay with TNF-α of 6%. In assay [1], the “# DEAD/TOTAL AT 25 MG/KG” value was 4/9.

Regarding `C=CCC1(C2=CCN(C(=O)OCC)CC2)c2ccccc2CCc2ccccc21` [IC], 10 µM produced 20% inhibition in the assay on TNF-α. The “# DEAD/TOTAL AT 25 MG/KG” value in assay [1] is 4/8.

Compound `CN1CC=C(C2c3ccccc3CCc3ccccc32)CC1` [Compound IL, 4-(10,11-dihydro-5H-dibenzo[a,d]cyclohepten-5-yl)-1-methyl-1,2,5,6-tetrahydropyridine] came in with an inhibition in vivo at 25 mg/kg in the assay with TNF of 58%. Testing at 10 µM in the assay with TNF-α gave an inhibition of 23%. In addition, in assay [1], the “# DEAD/TOTAL AT 25 MG/KG” value is 1/9.

`C=CCC1(C2=CCN(C(C)=O)CC2)c2ccccc2CCc2ccccc21` [Compound IG, 1-acetyl-4-[10,11-dihydro-5-(2-propenyl)-5H-dibenzo[a,d]cyclohepten-5-yl]-1,2,5,6-tetrahydro-1H-pyridine]: the inhibition at 10 µM with TNF-α worked out at 27%.

Turning to `CN1CC=C(C2(C)c3ccccc3CCc3ccccc32)CC1` [IS], the inhibition in vivo at 25 mg/kg in the assay with TNF is 26%. This compound also yielded an inhibition at 10 µM in the assay on TNF-α of 61%.

Consider `C=CCC1(C2=CCN(Cc3ccccc3)CC2)c2ccccc2CCc2ccccc21` [Compound IN, 4-[10,11-dihydro-5-(2-propenyl)-5H-dibenzo[a,d]cyclohepten-5-yl]-1-(phenylmethyl)-1,2,5,6-tetrahydro-1H-pyridine], for which, in the assay with TNF, the inhibition in vivo at 25 mg/kg was 42%. The same compound registered an inhibition at 10 µM with TNF-α of 25%. For the same compound, the “# DEAD/TOTAL AT 25 MG/KG” value in assay [1] is 10/10.

Turning to `CCCC1(C2=CCN(C)CC2)c2ccccc2CCc2ccccc21` [Compound IF, 4-[10,11-dihydro-5-propyl-5H-dibenzo[a,d]cyclohepten-5-yl]-1-methyl-1,2,5,6-tetrahydropyridine], the inhibition in vivo at 25 mg/kg in the assay on TNF was determined as 50%. In the assay on TNF-α, this compound came in with an inhibition at 10 µM of 28%. Further, the “# DEAD/TOTAL AT 25 MG/KG” value in assay [1] was 5/8.

Turning to `c1ccc2c(c1)CCc1ccccc1C2C1CCCNC1` (stereo not drawn) [Compound ID, 3-(10,11-dihydro-5H-dibenzo[a,d]cyclohepten-5-yl)-piperidine acetic acid], the inhibition at 10 µM in the assay on TNF-α was found to be 51%.

As for `CCCC1(C2CCN(C)CC2)c2ccccc2CCc2ccccc21` [Compound IJ, 4-[10,11-dihydro-5-propyl-5H-dibenzo[a,d]cyclohepten-5-yl]-1-methylpiperidine], the inhibition at 10 µM in the assay on TNF-α was determined as 55%.

For the compound `C=CCC1(C2=CC[N+](C)(C)CC2)c2ccccc2CCc2ccccc21.[I-]` [Compound IM, 4-[10,11-dihydro-5-(2-propenyl)-5H-dibenzo[a,d]cyclohepten-5-yl]-1,1-dimethyl-1,2,5,6-tetrahydropyridinium iodide], testing at 25 mg/kg in the assay on TNF gave an inhibition in vivo of 27%. At 10 µM the inhibition with TNF-α was 8%. Also, in assay [1], the “# DEAD/TOTAL AT 25 MG/KG” value is recorded as 2/11.

In turn, `CN1CCCC(C2c3ccccc3CCc3ccccc32)C1` (stereo not drawn) [Compound IR, 3-(10,11-dihydro-5H-dibenzo[a,d]cyclohepten-5-yl)-1-methyl-piperidine] showed an inhibition at 10 µM with TNF-α of 60%.

Take `C=CCC1(C2=CCN(C)CC2)c2ccccc2CCc2ccc(Cl)cc21` (stereo not drawn) [IA]: the inhibition at 10 µM with TNF-α was 80%.

Usually inhibition stands for the change of the read-out against control, counted positive when it falls. Higher therefore signals strong suppression. The inhibition in vivo is the relative decrease from the control value, in per cent. Read a high inhibition in vivo as strong suppression.
